Like-named read-outs stand apart in the source and are kept apart here.
Legend:
[1] = target: recombinant human Bcl-2 D103Y protein (Homo sapiens (Human), UniProt P10415, D103Y); experiment: Bcl-2-D103Y Biochemical Assay (TR-FRET); assay type: binding; details: for IC50: TR-FRET, FITC labeled Bak peptide; for Ratio of Bcl-2 D103Y/Bcl-2 WT: ratio of IC50; for ratio of Bcl-2 D103Y/Bcl-2 wt, compared with F91b in WO2019210828: comparison in words
In short: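 Recombinant human Bcl-2 D103Y binding to its ligand measured by TR-FRET (ex 337 nm, em 490/520 nm) with increasing compound concentrations. Percent inhibition from the 490/520 nm ratio; IC50 from four-parameter logistic fit.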

[2] = target: Recombinant human Bcl-2 protein (Homo sapiens (Human), UniProt P10415); experiment: Bcl-2 TR-FRET Assay; assay type: binding
In short: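 0.05 nM Bcl-2 pre-incubated 0.5 h at room temperature with 10-point compound dilutions (top final 1, 0.1, 0.02 or 0.01 uM) in 20 mM potassium phosphate pH 7.5, 50 mM NaCl, 1 mM EDTA, 0.05% Tween-20, 0.01% BSA; FITC-Bak peptide (0.5 nM) and anti-6His Tb cryptate added, 1 h. IC50 from four-parameter logistic fit.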

[3] = tested on: BCL-2 G101V knock-in cell line H96 (derive from RS4;11); experiment: Bcl 2-G101V Knock-In RS4;11 Cell Proliferation Assay; assay type: cell-based; details: Homo sapiens, RS4;11 Bcl-2 G101V knock-in clone H96, 48 hrs, CellTiter-GLO, read-out: Cellular proliferation assay (IC50, nM) RS4
In short: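 H96, a CRISPR-generated RS4;11 clone carrying BCL2-G101V knock-in (WES/RNA-seq validated), seeded 50,000 per well and exposed 48 h at 37 °C to 10-point dilutions topping at 1 or 10 μM. Viability by CellTiter-Glo luminescence; mean IC50.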

[4] = tested on: RS4;11 (BCL-2 dependent acute lymphoblastic leukemia cell line); experiment: RS4;11 Cell Proliferation Assay; assay type: cell-based; details: Homo sapiens, RS4-11, RS4;11 cells, read-out: Cellular proliferation assay (IC50, nM) RS4
In short: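 RS4;11 cells, 50,000 per well in RPMI-1640 with 10% FBS, treated 48 h at 37 °C with a 10-point dilution series topping at 1 μM. Viability read by CellTiter-Glo ATP luminescence; mean IC50 reported.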

[5] = tested on: recombinant human Bcl-2-G101V protein; experiment: Bcl-2-G101V TR-FRET Assay; assay type: binding; details: for Ratio of Bcl-2 G101V/WT: ratio of biochemical IC50 Bcl-2 G101V / Bcl-2 WT; for ratio of IC50 of Bcl-2 G101V/Bcl-2 wt, compared with Example F132b in WO2019210828 and ABT-199 (venetoclax): comparison in words
In short: (§1)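 Ex337/em490 & 520 nm TR-FRET; % inhibition of Bcl-2-G101V–ligand interaction from 490:520 ratio vs. increasing compound conc.; IC50 by 4-parameter logistic fit.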

[6] = target: recombinant human Bcl-2-G101V protein (Homo sapiens (Human), UniProt P10415, G101V); experiment: Bcl-2-G101V TR-FRET Assay; assay type: binding; details: Bcl-2 G101V mutant, TR-FRET; read-out: Biochemical assay (IC50, nM) Bcl-2 G101V
In short: as §1

[7] = Bcl-2 wild type, TR-FRET, read-out: Biochemical assay (IC50, nM) Bcl-2 WT
[8] = wild type Bcl-2, unit inferred, read-out: Bcl-2 WT

Compound | IC50 [1] | Ratio of Bcl-2 D103Y/Bcl-2 WT [1] | IC50 [2, 7] | IC50 [2, 8] | IC50 [3] | IC50 [4] | Ratio of Bcl-2 G101V/WT [5] | IC50 [6] | ratio of Bcl-2 D103Y/Bcl-2 wt, compared with F91b in WO2019210828 [1] | ratio of IC50 of Bcl-2 G101V/Bcl-2 wt, compared with Example F132b in WO2019210828 and ABT-199 (venetoclax) [5]
COc1cc(CN2CCN(C3CC4(C3)CN(c3ccc(C(=O)NS(=O)(=O)c5ccc(NC[C@H]6CC[C@](C)(O)CC6)c([N+](=O)[O-])c5)c(Oc5cnc6[nH]cc(F)c6c5)c3)C4)[C@H](c3ccccc3C(C)C)C2)ccc1NC(C)C [Example 360] | 0.31 nM | 1.4 | 0.23 nM | 0.23 nM | 0.11 nM | 0.05 nM | 2.2 | 0.5 nM |  | 
CC(C)c1ccccc1[C@@H]1CN(Cc2ccc(Cl)cc2)CCN1C1CC2(CCN(c3ccc(C(=O)NS(=O)(=O)c4ccc(NC[C@H]5CC[C@](C)(O)CC5)c([N+](=O)[O-])c4)c(Oc4cnc5[nH]ccc5c4)c3)CC2)C1 (single isomer, unassigned) [Example 29a, 2-((1H-pyrrolo[2,3-b]pyridin-5-yl)oxy)-4-(2-((R or S)-4-(4-chlorobenzyl)-2-(2-isopropylphenyl)piperazin-1-yl)-7-azaspiro[3.5]nonan-7-yl)-N-((4-((((1r,4r)-4-hydroxy-4-methylcyclohexyl)methyl)amino)-3-nitrophenyl)sulfonyl)benzamide] | 0.38 nM | 1.9 | 0.2 nM | 0.2 nM | 1.42 nM | 0.22 nM | 3.5 | 0.72 nM |  | 
COc1ccc(CN2CCN(C3CC4(CCN(c5ccc(C(=O)NS(=O)(=O)c6ccc(NC[C@H]7CC[C@](C)(O)CC7)c([N+](=O)[O-])c6)c(Oc6cnc7[nH]ccc7c6)c5)CC4)C3)C(c3ccccc3C(C)C)C2)cc1C (stereo partly drawn) [Example 144, 2-((1H-pyrrolo[2,3-b]pyridin-5-yl)oxy)-N-((4-((((1r,4r)-4-hydroxy-4-methylcyclohexyl)methyl)amino)-3-nitrophenyl)sulfonyl)-4-(2-(2-(2-isopropylphenyl)-4-(4-methoxy-3-methylbenzyl)piperazin-1-yl)-7-azaspiro[3.5]nonan-7-yl)benzamide] | 0.47 nM | 1.8 | 0.26 nM | 0.26 nM | 2.8 nM | 0.463 nM | 4.1 | 1.1 nM |  | 
COc1ccc(CN2CCN(C3CC4(CCN(c5ccc(C(=O)NS(=O)(=O)c6ccc(NC[C@H]7CC[C@](C)(O)CC7)c([N+](=O)[O-])c6)c(Oc6cc7c(F)c[nH]c7nc6C)c5)CC4)C3)[C@H](c3ccccc3C(C)C)C2)cc1 [Example 125, 2-((3-fluoro-6-methyl-1H-pyrrolo [2,3-b]pyridin-5-yl)oxy)-N-((4-((((1r,4r)-4-hydroxy-4-methylcyclohexyl)methyl)amino)-3-nitrophenyl)sulfonyl)-4-(2-((R)-2-(2-isopropylphenyl)-4-(4-methoxybenzyl)piperazin-1-yl)-7-azaspiro[3.5]nonan-7-yl) benzamide] | 0.33 nM | 1.1 | 0.3 nM | 0.3 nM | 0.68 nM | 0.15 nM | 2.4 | 0.71 nM |  | 
COc1cc(CN2CCN(C3CC4(C3)CN(c3ccc(C(=O)NS(=O)(=O)c5ccc(NC[C@H]6CC[C@](C)(O)CC6)c([N+](=O)[O-])c5)c(Oc5cnc6[nH]cc(F)c6c5)c3)C4)[C@H](c3ccccc3C(C)C)C2)cc2c1OCC2(C)C [Example 295, 2-((3-fluoro-1H-pyrrolo[2,3-b]pyridin-5-yl)oxy)-N-((4-((((1r,4r)-4-hydroxy-4-methylcyclohexyl)methyl)amino)-3-nitrophenyl)sulfonyl)-4-(6-((R)-2-(2-isopropylphenyl)-4-((7-methoxy-3,3-dimethyl-2,3-dihydrobenzofuran-5-yl)methyl)piperazin-1-yl)-2-azaspiro[3.3]heptan-2-yl)benzamide] | 0.25 nM | 1.3 | 0.19 nM | 0.19 nM | 0.49 nM | 0.29 nM | 3.0 | 0.56 nM |  | 
COc1ccc(CN2CCN(C3CC4(CCN(c5ccc(C(=O)NS(=O)(=O)c6ccc(NC[C@H]7CC[C@](C)(O)CC7)c([N+](=O)[O-])c6)c(Oc6cnc7[nH]cc(F)c7c6)c5)CC4)C3)[C@H](c3ccccc3C(C)C)C2)cn1 [Example 217, 2-((3-fluoro-1H-pyrrolo[2,3-b]pyridin-5-yl)oxy)-N-((4-((((1r,4r)-4-hydroxy-4-methylcyclohexyl)methyl)amino)-3-nitrophenyl)sulfonyl)-4-(2-((R)-2-(2-isopropylphenyl)-4-((6-methoxypyridin-3-yl)methyl)piperazin-1-yl)-7-azaspiro[3.5]nonan-7-yl)benzamide] | 0.1 nM | 1.4 | 0.074 nM | 0.074 nM | 0.41 nM | 0.11 nM | 2.4 | 0.17 nM |  | 
CC(C)c1ccccc1C1CN(Cc2ccc(C#N)cc2)CCN1C1CC2(CCN(c3ccc(C(=O)NS(=O)(=O)c4ccc(NC[C@H]5CC[C@](C)(O)CC5)c([N+](=O)[O-])c4)c(Oc4cnc5[nH]ccc5c4)c3)CC2)C1 (stereo partly drawn) [Example 42, 2-((1H-pyrrolo[2,3-b]pyridin-5-yl)oxy)-4-(2-(4-(4-cyanobenzyl)-2-(2-isopropylphenyl)piperazin-1-yl)-7-azaspiro[3.5]nonan-7-yl)-N-((4-((((1r,4r)-4-hydroxy-4-methylcyclohexyl)methyl)amino)-3-nitrophenyl)sulfonyl)benzamide] | 1.7 nM | 4.1 | 0.41 nM | 0.41 nM | 13.5 nM | 1.8 nM | 6.1 | 2.5 nM |  | 
CC(C)c1ccccc1C1CN(CC2CCCCC2)CCN1C1CC2(CCN(c3ccc(C(=O)NS(=O)(=O)c4ccc(NC[C@H]5CC[C@](C)(O)CC5)c([N+](=O)[O-])c4)c(Oc4cnc5[nH]ccc5c4)c3)CC2)C1 (stereo partly drawn) [Example 16, 2-((1H-pyrrolo[2,3-b]pyridin-5-yl)oxy)-4-(2-(4-(cyclohexylmethyl)-2-(2-isopropylphenyl)piperazin-1-yl)-7-azaspiro[3.5]nonan-7-yl)-N-((4-((((1r,4r)-4-hydroxy-4-methylcyclohexyl)methyl)amino)-3-nitrophenyl)sulfonyl)benzamide] | 0.63 nM | 2.5 | 0.26 nM | 0.26 nM | 8.6 nM | 0.81 nM | 6.5 | 1.7 nM | significantly lower | much lower
COc1cc(CN2CCN(C3CC4(CCN(c5ccc(C(=O)NS(=O)(=O)c6ccc(NC[C@H]7CC[C@](C)(O)CC7)c([N+](=O)[O-])c6)c(Oc6cnc7[nH]ccc7c6)c5)CC4)C3)C(c3ccccc3C(C)C)C2)cnc1OC (stereo partly drawn) [Example 176, 2-((1H-pyrrolo[2,3-b]pyridin-5-yl)oxy)-4-(2-(4-((5,6-dimethoxypyridin-3-yl)methyl)-2-(2-isopropylphenyl)piperazin-1-yl)-7-azaspiro[3.5]nonan-7-yl)-N-((4-((((1r,4r)-4-hydroxy-4-methylcyclohexyl)methyl)amino)-3-nitrophenyl)sulfonyl)benzamide] | 0.061 nM | 1.7 | 0.035 nM | 0.035 nM | 1 nM | 0.39 nM | 4.3 | 0.15 nM |  | 
COc1ccc(CN2CCN(C3CC4(CCN(c5ccc(C(=O)NS(=O)(=O)c6ccc(NC[C@@H]7CN(C8COC8)CCO7)c([N+](=O)[O-])c6)c(Oc6cnc7[nH]ccc7c6)c5)CC4)C3)[C@@H](c3ccccc3C(C)C)C2)cc1 (single isomer, unassigned) [Example 84, 2-((1H-pyrrolo[2,3-b]pyridin-5-yl)oxy)-4-(2-((R or S)-2-(2-isopropylphenyl)-4-(4-methoxybenzyl)piperazin-1-yl)-7-azaspiro[3.5]nonan-7-yl)-N-((3-nitro-4-((((R)-4-(oxetan-3-yl)morpholin-2-yl)methyl)amino)phenyl)sulfonyl)benzamide] | 0.049 nM | 1.8 | 0.028 nM | 0.028 nM | 0.6 nM | 0.206 nM | 5.2 | 0.15 nM | significantly lower | much lower

Reference: US20240376097A1, “BCL-2 Inhibitor” (BeiGene Ltd., priority 2020, published 2024)
